Reference: publication PMC6515290, “Gypenoside LXXV Promotes Cutaneous Wound Healing In Vivo by Enhancing Connective Tissue Growth Factor Levels Via the Glucocorticoid Receptor Pathway” (Molecules, 2019)
pIC50: −log10 of the molar value.

Molecular target: T1, glucocorticoid receptor (GR) (Homo sapiens, UniProt P04150)
T1 construct: gene NR3C1
T1 sequence (P04150 1-777): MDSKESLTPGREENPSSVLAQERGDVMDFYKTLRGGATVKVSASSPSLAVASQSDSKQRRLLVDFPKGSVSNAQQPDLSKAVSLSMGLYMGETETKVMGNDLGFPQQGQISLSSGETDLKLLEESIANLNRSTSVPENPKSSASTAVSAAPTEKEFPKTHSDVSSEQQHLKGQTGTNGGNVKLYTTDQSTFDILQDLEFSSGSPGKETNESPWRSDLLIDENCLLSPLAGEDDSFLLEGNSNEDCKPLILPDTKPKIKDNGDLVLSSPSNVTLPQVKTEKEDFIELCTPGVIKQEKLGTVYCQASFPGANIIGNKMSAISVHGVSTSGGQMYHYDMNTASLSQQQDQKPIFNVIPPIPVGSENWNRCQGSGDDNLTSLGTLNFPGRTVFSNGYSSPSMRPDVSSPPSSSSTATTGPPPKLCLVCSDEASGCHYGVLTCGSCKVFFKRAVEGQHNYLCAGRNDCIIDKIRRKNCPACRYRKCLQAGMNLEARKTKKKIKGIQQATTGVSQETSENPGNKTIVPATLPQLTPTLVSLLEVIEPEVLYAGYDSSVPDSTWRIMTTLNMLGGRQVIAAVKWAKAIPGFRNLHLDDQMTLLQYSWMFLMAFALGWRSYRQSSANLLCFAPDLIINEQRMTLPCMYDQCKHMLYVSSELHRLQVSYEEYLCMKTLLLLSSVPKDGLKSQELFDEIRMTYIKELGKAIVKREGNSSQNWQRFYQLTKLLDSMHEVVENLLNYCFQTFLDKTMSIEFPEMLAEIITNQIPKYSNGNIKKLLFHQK
Experiment: PolarScreen GR competitor assay, fluorescence polarization displacement of Fluormone
Type: binding

Question: How did the pIC50 turn out when CC(C)=CCC[C@](C)(O[C@@H]1O[C@H](CO[C@@H]2O[C@H](CO)[C@@H](O)[C@H](O)[C@H]2O)[C@@H](O)[C@H](O)[C@H]1O)[C@H]1CC[C@]2(C)[C@@H]1[C@H](O)C[C@@H]1[C@@]3(C)CC[C@H](O)C(C)(C)[C@@H]3CC[C@]12C [G75, Gypenoside LXXV] was run?
Answer: 7.28
